In patent US9523100B2, “Pesticidal compositions and related methods” (DOW AGROSCIENCES LLC, priority 2013, dated 2016):
Where two headings read alike, the source gives them in different places.

Key:
[1] = tested on: Sweetpotato Whitefly-Crawler (WF) (Bemisia tabaci) (BEMITA); test: Insecticidal test for Sweetpotato Whitefly-Crawler (WF) in foliar spray assay on cotton plants; format: in vivo; conditions: 216 h, read-out: WF 200 ppm, % Control (or Mortality) rating
Outline: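 Whitefly nymph control on egg-infested cotton (eggs laid 4–5 days pre-treatment), foliar spray at 200 ppm test compound. Live late-stage nymphs counted microscopically 9 days later at ~25 °C; control calculated by Abbott's formula relative to acetone-diluent-sprayed plants.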

[2] = tested on: Green Peach Aphid (GPA) (Myzus persicae) (MYZUPE); test: Bioassay for Green Peach Aphid (GPA), foliar spray on cabbage seedlings; format: in vivo; conditions: 72 h, read-out: GPA 200 ppm, % Control (or Mortality) rating
Outline: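 Foliar spray test: 200 ppm solutions (0.025% Tween 20 in water, 20% acetone/methanol) applied to both leaf sides of aphid-infested cabbage seedlings. After 3 days at about 25° C, live aphids per plant were counted; control corrected to solvent check via Abbott's formula.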

[3] = 200 ppm foliar spray on cotton plants, graded after 9 days, Abbott corrected % control
[4] = 200 ppm foliar spray on cabbage seedlings, graded after three days, Abbott corrected % control

SMILES | mortality at 200 ppm ([1]; foliar) [%] | mortality at 200 ppm ([2]; foliar) [%] | mortality at 200 ppm [1, 3] [%] | mortality at 200 ppm [2, 4] [%]
CCN(C(=O)CN(C)C(=O)OC(C)(C)C)c1cn(-c2cccnc2)nc1Cl [Compound F4, tert-Butyl (2-((3-chloro-1-(pyridin-3-yl)-1H-pyrazol-4-yl)(ethyl)amino)-2-oxoethyl)(methyl)carbamate] | 80 to 100 | 80 to 100 | – | –
CCN(C(=O)CCNC(=O)/C=C/C(F)(F)F)c1cn(-c2cccnc2)nc1Cl [Compound F65, (E)-N-(3-((3-Chloro-1-(pyridin-3-yl)-1H-pyrazol-4-yl)(ethyl)amino)-3-oxopropyl)-4,4,4-trifluorobut-2-enamide] | – | – | 80 to 100 | 80 to 100
C#CCN(C(=O)CN(C)C(=O)OC(C)(C)C)c1cn(-c2cccnc2)nc1Cl [Compound F23, tert-Butyl (2-((3-chloro-1-(pyridin-3-yl)-1H-pyrazol-4-yl)(prop-2-yn-1-yl)amino)-2-oxoethyl)(methyl) carbamate] | 80 to 100 | 0 to 80 | – | –
CCN(C(=O)CCC(=O)N(C)CC#N)c1cn(-c2cccnc2)nc1Cl [Compound F55, N1-(3-Chloro-1-(pyridin-3-yl)-1H-pyrazol-4-yl)-N4-(cyanomethyl)-N1-ethyl-N4-methylsuccinamide] | – | – | 80 to 100 | 0 to 80
CCN(C(=O)C1CCN(C(C)=O)CC1)c1cn(-c2cccnc2)nc1Cl [Compound F61, 1-Acetyl-N-(3-chloro-1-(pyridin-3-yl)-1H-pyrazol-4-yl)-N-ethylpiperidine-4-carboxamide] | – | – | 0 to 80 | 80 to 100
CCN(C(=O)CCN(CC(F)F)C(=O)CC1CC1)c1cn(-c2cccnc2)nc1Cl [Compound F125, N-(3-Chloro-1-(pyridin-3-yl)-1H-pyrazol-4-yl)-3-(2-cyclopropyl-N-(2,2-difluoroethyl)acetamido)-N-ethylpropanamide] | – | – | 80 to 100 | 80 to 100
CCN(C(=O)CCN(C)C(=O)CCC(F)(F)F)c1cn(-c2cccnc2)nc1Cl [Compound F94, N-(3-((3-Chloro-1-(pyridin-3-yl)-1H-pyrazol-4-yl)(ethyl)amino)-3-oxopropyl)-4,4,4-trifluoro-N-methylbutanamide] | – | – | 80 to 100 | 80 to 100
CN(C)C(=O)CCC(=O)N(C)c1cn(-c2cccnc2)nc1Cl [Compound F25, N1-(3-Chloro-1-(pyridin-3-yl)-1H-pyrazol-4-yl)-N1,N4,N4-trimethyl succinimide] | – | – | 80 to 100 | 0 to 80
CN(C(=O)CCC(=O)N1CCCC1)c1cn(-c2cccnc2)nc1Cl [Compound F37, N-(3-Chloro-1-(pyridin-3-yl)-1H-pyrazol-4-yl)-N-methyl-4-oxo-4-(pyrrolidin-1-yl)butanamide] | – | – | 80 to 100 | 0 to 80
CCN(C(=O)C(C)N(C)C(=O)N(C)C)c1cn(-c2cccnc2)nc1Cl (centres unmarked) [Compound F114, N-(3-Chloro-1-(pyridin-3-yl)-1H-pyrazol-4-yl)-N-ethyl-2-(1,3,3-trimethylureido)propanamide] | – | – | 80 to 100 | 80 to 100
CCOC(=O)N(C)CCC(=O)N(CC)c1cn(-c2cccnc2)nc1Cl [Compound F42, Ethyl (3-((3-chloro-1-(pyridin-3-yl)-1H-pyrazol-4-yl)(ethyl)amino)-3-oxopropyl)(methyl)carbamate] | – | – | 80 to 100 | 80 to 100
CCN(C(=O)C(C)C/C(C)=N\OCCC1CC1(F)F)c1cn(-c2cccnc2)nc1Cl (centres unmarked) [FA57, (Z)-N-(3-Chloro-1-(pyridin-3-yl)-1H-pyrazol-4-yl)-4-((2-(2,2-difluorocyclopropyl)ethoxy)imino)-N-ethyl-2-methylpentanamide] | – | – | 0 to 80 | 80 to 100
CN(CC(=O)N(C)c1cn(-c2cccnc2)nc1Cl)C(=O)OC(C)(C)C [Compound F90, tert-Butyl (2-((3-chloro-1-(pyridin-3-yl)-1H-pyrazol-4-yl)(methyl)amino)-2-oxoethyl)(methyl) carbamate] | 80 to 100 | 0 to 80 | – | –
CN(C(=O)CCN1CCSC1=O)c1cn(-c2cccnc2)nc1Cl [Compound F38, N-(3-Chloro-1-(pyridin-3-yl)-1H-pyrazol-4-yl)-N-methyl-3-(2-oxothiazolidin-3-yl)propanamide] | – | – | 80 to 100 | 80 to 100
CCN(C(=O)CN1CCSC1=O)c1cn(-c2cccnc2)nc1Cl [Compound F10, N-(3-Chloro-1-(pyridin-3-yl)-1H-pyrazol-4-yl)-N-ethyl-2-(2-oxothiazolidin-3-yl)acetamide] | – | – | 80 to 100 | 0 to 80
CCN(C(=O)CCC(=O)NCCF)c1cn(-c2cccnc2)nc1Cl [Compound F43, N1-(3-Chloro-1-(pyridin-3-yl)-1H-pyrazol-4-yl)-N1-ethyl-N4-(2-fluoroethyl)succinamide] | – | – | 80 to 100 | 0 to 80

SMILES | mortality at 200 ppm ([1]; foliar) [%] | mortality at 200 ppm ([2]; foliar) [%] | mortality at 200 ppm [1, 3] [%] | mortality at 200 ppm [2, 4] [%]
CCN(C(=O)C1CCN(C(C)=O)C1)c1cn(-c2cccnc2)nc1Cl (centres unmarked) [Compound P20, 1-Acetyl-N-(3-chloro-1-(pyridin-3-yl)-1H-pyrazol-4-yl)-N-ethylpyrrolidine-3-carboxamide] | – | – | 0 to 80 | 80 to 100
CCN(C(=O)CCNC(=O)CC(F)(F)F)c1cn(-c2cccnc2)nc1Cl [Compound F63, N-(3-((3-Chloro-1-(pyridin-3-yl)-1H-pyrazol-4-yl)(ethyl)amino)-3-oxopropyl)-3,3,3-trifluoropropanamide] | – | – | 80 to 100 | 80 to 100
CCN(C(=O)CC1CN(Cc2ccc(C(F)(F)F)nc2)C1=O)c1cn(-c2cccnc2)nc1Cl (centres unmarked) [Compound F117] | – | – | 80 to 100 | 80 to 100
CCN(C(=O)CC/C(=N\OCCCC(F)(F)F)c1cccs1)c1cn(-c2cccnc2)nc1Cl [FA26, (E)-N-(3-Chloro-1-(pyridin-3-yl)-1H-pyrazol-4-yl)-N-ethyl-4-(thiophen-2-yl)-4-((4,4,4-trifluorobutoxy)imino)butanamide] | – | – | 80 to 100 | 0 to 80
CCN(C(=O)C(C)(C)OC(C)=O)c1cn(-c2cccnc2)nc1Cl [FA73, 1-((3-Chloro-1-(pyridin-3-yl)-1H-pyrazol-4-yl)(ethyl)amino)-2-methyl-1-oxopropan-2-ylacetate] | – | – | 0 to 80 | 80 to 100
CCN(C(=O)CCC(=O)NCC(F)(F)F)c1cn(-c2cccnc2)nc1Cl [Compound F67, N1-(3-Chloro-1-(pyridin-3-yl)-1H-pyrazol-4-yl)-N1-ethyl-N4-(2,2,2-trifluoroethyl)succinamide] | – | – | 80 to 100 | 80 to 100
CN(C(=O)CCN1CCCCC1=O)c1cn(-c2cccnc2)nc1Cl [Compound F49, N-(3-Chloro-1-(pyridin-3-yl)-1H-pyrazol-4-yl)-N-methyl-3-(2-oxopiperidin-1-yl)propanamide] | – | – | 80 to 100 | 80 to 100
CCN(C(=O)CC/C(=N\OCCCCC(F)(F)F)c1cccs1)c1cn(-c2cccnc2)nc1Cl [FA28, (E)-N-(3-Chloro-1-(pyridin-3-yl)-1H-pyrazol-4-yl)-N-ethyl-4-(thiophen-2-yl)-4-(((5,5,5-trifluoropentyl)oxy)imino)butanamide] | – | – | 0 to 80 | 0 to 80
CCN(C(=O)CCC1CN(Cc2ccc(C(F)(F)F)nc2)C1=O)c1cn(-c2cccnc2)nc1Cl (centres unmarked) [Compound F91, N-(3-Chloro-1-(pyridin-3-yl)-1H-pyrazol-4-yl)-N-ethyl-3-(2-oxo-1-((6-(trifluoromethyl)pyridin-3-yl)methyl)azetidin-3-yl)propanamide] | – | – | 80 to 100 | 80 to 100
CC(=O)CCC(=O)N(C)c1cn(-c2cccnc2)nc1Cl [FA75, N-(3-Chloro-1-(pyridin-3-yl)-1H-pyrazol-4-yl)-N-methyl-4-oxopentanamide] | – | – | 80 to 100 | 0 to 80
CCN(C(=O)CC/C(=N/OCC(F)(F)F)c1cccs1)c1cn(-c2cccnc2)nc1Cl [FA35, (E/Z)-N-(3-Chloro-1-(pyridin-3-yl)-1H-pyrazol-4-yl)-N-ethyl-4-(thiophen-2-yl)-4-((2,2,2-trifluoroethoxy)imino)butanamide] | – | – | 80 to 100 | 0 to 80
CCN(C(=O)C1CN(C(C)=O)C1)c1cn(-c2cccnc2)nc1Cl [Compound P23, 1-Acetyl-N-(3-chloro-1-(pyridin-3-yl)-1H-pyrazol-4-yl)-N-ethylazetidine-3-carboxamide] | – | – | 80 to 100 | 80 to 100
CCN(C(=O)C(C)N(C)C(C)=O)c1cn(-c2cccnc2)nc1Cl (centres unmarked) [Compound F96, N-(3-Chloro-1-(pyridin-3-yl)-1H-pyrazol-4-yl)-N-ethyl-2-(N-methylacetamido)propanamide] | – | – | 80 to 100 | 80 to 100
CCN(C(=O)CC1CCN(CCC2CC2(F)F)C1=O)c1cn(-c2cccnc2)nc1Cl (centres unmarked) [FA64, N-(3-Chloro-1-(pyridin-3-yl)-1H-pyrazol-4-yl)-2-(1-(2-(2,2-difluorocyclopropyl)ethyl)-2-oxopyrrolidin-3-yl)-N-ethylacetamide] | – | – | 80 to 100 | 80 to 100
O=C(CCC(=O)N(CC1CC1)c1cn(-c2cccnc2)nc1Cl)N1CCCC1 [Compound F95, N-(3-Chloro-1-(pyridin-3-yl)-1H-pyrazol-4-yl)-N-(cyclopropylmethyl)-4-oxo-4-(pyrrolidin-1-yl)butanamide] | – | – | 0 to 80 | 0 to 80
